Source: US9937235B2, “Lipidated peptides as anti-obesity agents” (USTAV ORGANICKE CHEMIE A BIOCHEMIE AKADEMIE VED CR, V.V.I, priority 2012, dated 2018)
Values belong to the compound of their own block, whether it stands above or below them. Where a SMILES comes first, the peptide text is derived from it. Where no end group is shown, it is not given here. [ ]: non-standard residue; d: D form. The star is where a group is joined. Phe(F5) = N[C@@H](Cc1c(F)c(F)c(F)c(F)c1F)C(=O)O; Palmitoyl = CCCCCCCCCCCCCCCC(=O)*; Lauroyl = CCCCCCCCCCCC(=O)*; Nle = CCCC[C@H](N)C(=O)O

What was measured:
fasted C57BL/6 mice [1] = assay: Food intake in fasted mice after SC administration; format: in vivo, mouse; details: for Food intake in mice (5 mg/kg SC) % saline-treated group (45 min): fasted C57BL/6 mice; for food intake / % control: SC administration, dose not stated for these substances; for % control: food intake vs saline
Outline: (§1)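 Male C57BL/6 mice, food-deprived 17 h, received saline, PrRP or lipidated analogs either SC at 1-10 mg/kg or ICV into the third ventricle at 4 nmol/mouse.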

[2] = molecular target: T1, rat PrRP receptor (GPR10) in RC-4B/C cells (Rattus norvegicus, UniProt Q64121); assay: Competitive binding to rat pituitary RC-4B/C cells
T1 construct: host or cells: RC-4B/C rat pituitary cell line
T1 sequence (Q64121 1-370): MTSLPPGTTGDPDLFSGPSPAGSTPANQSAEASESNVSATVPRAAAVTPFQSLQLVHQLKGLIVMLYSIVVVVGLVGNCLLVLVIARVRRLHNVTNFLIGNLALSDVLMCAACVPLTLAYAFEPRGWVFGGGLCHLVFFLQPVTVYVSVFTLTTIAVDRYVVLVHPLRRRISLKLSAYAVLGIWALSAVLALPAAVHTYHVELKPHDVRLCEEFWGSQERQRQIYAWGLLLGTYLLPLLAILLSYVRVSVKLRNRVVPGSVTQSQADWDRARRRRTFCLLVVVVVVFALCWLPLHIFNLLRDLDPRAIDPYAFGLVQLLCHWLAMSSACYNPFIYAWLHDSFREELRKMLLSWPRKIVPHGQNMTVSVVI

[3] = molecular target: T2, human PrRP receptor, GPR10 (Homo sapiens, UniProt P49683); assay: Competitive binding to CHO cells with transfected human GPR10; details: CHO cells with transfected human GPR10, human ^125I—PrRP31
T2 construct: host or cells: CHO cells
T2 sequence (P49683 1-370): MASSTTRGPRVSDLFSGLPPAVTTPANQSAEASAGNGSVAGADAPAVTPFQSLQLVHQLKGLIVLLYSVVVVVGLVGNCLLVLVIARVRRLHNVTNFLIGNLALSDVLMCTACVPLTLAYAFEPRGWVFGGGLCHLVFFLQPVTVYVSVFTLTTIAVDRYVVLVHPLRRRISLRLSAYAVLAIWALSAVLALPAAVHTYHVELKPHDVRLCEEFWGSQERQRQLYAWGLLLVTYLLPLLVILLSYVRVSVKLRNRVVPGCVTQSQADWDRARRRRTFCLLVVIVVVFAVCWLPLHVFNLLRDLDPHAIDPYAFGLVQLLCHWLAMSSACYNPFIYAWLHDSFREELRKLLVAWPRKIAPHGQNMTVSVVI
Protocol: Competitive binding experiments were performed according to Motulsky and Neubig (Motulsky, A., et al., “Analyzing radioligand binding data,” Curr Protoc Neurosci, Chapter 7, Unit 7.5, 2002).
CHO cells with transfected human PrRP receptor, GPR10 (Perkin Elmer, USA) were grown on 24-well plates coated with polyethyleneimine. The cells were grown to the optimal density of 40-80 thousand cells per well. The following agents were used for the experiment: binding buffer (25 mmol·l^−1 Tris, pH 7.4; 118 mmol·l^−1 NaCl, 10 mmol·l^−1 MgCl2, 1 mmol·l^−1 CaCl2, 5.5 mmol·l^−1 glucose, 0.5 mg/ml BSA), unlabelled analogs of PrRP of final concentration within 10^−11 to 10^−4 mol·l^−1, and human ^125I—PrRP31 of final concentration of 5×10^−11 mol·l^−1.
Plates were incubated for 60 minutes at room temperature. After incubation, the cells were solubilized in 0.1 mol/l solution of NaOH and the radioactivity bound to the cells was counted using a γ-counter. The experiments were performed in duplicate and repeated at least three times.
For evaluation of competitive binding experiments, the program Graph Pad Prism Software (San Diego, Calif., USA) was used. A method of nonlinear regression assuming one-site binding was used.

fasted C57BL/6 mice [4] = details: central administration, Maixnerová et al., 2011; cited from earlier work
[5] = system: MAPK/ERK1/2 signaling pathway in RC-4B/C cells; assay: MAPK/ERK1/2 signaling in RC-4B/C cells (Western blot); format: cell-based, rat; details: 10^−6 mol·l^−1, 5 minute incubation
rats = details: ICV, third brain ventricle, Lawrence et al.; cited from earlier work
fasted C57BL/6 mice [6] = assay: Food intake in fasted mice after ICV administration; format: in vivo; details: 4 nmol/mouse; for % control: food intake vs saline
Outline: as §1

Ki ([2]; rat RC-4B/C cells, Table 5, read-out: C-4B/C cells ^25I-rat PrRP31 Ki): 0.51 ± 0.08 nM
Ki [3]: 1.92 ± 0.53 nM
Compound: CCCCCCCCCCCCCCCC(=O)N[C@@H](CO)C(=O)N[C@@H](CCCNC(=N)N)C(=O)N[C@@H](C)C(=O)N[C@@H](Cc1c[nH]cn1)C(=O)N[C@@H](CCC(N)=O)C(=O)N[C@@H](Cc1c[nH]cn1)C(=O)N[C@@H](CO)C(=O)N[C@@H](CCCC)C(=O)N[C@@H](CCC(=O)O)C(=O)N[C@H](C(=O)N[C@@H](CCCNC(=N)N)C(=O)N[C@H](C(=O)N1CCC[C@H]1C(=O)N[C@@H](CC(=O)O)C(=O)N[C@H](C(=O)N[C@@H](CC(N)=O)C(=O)N1CCC[C@H]1C(=O)N[C@@H](C)C(=O)N[C@@H](Cc1c[nH]c2ccccc12)C(=O)N[C@@H](Cc1ccc(O)cc1)C(=O)N[C@H](C(=O)NCC(=O)N[C@@H](CCCNC(=N)N)C(=O)NCC(=O)N[C@H](C(=O)N[C@@H](CCCNC(=N)N)C(=O)N1CCC[C@H]1C(=O)N[C@H](C(=O)NCC(=O)N[C@@H](CCCNC(=N)N)C(=O)N[C@@H](Cc1c(F)c(F)c(F)c(F)c1F)C(N)=O)C(C)C)[C@@H](C)CC)[C@@H](C)O)[C@@H](C)CC)[C@@H](C)O)[C@@H](C)O [Analog 33] (Palmitoyl-SRAHQHS[Nle]ETRTPDINPAWYTGRGIRPVGR[Phe(F5)]-NH2)
Food intake in mice (5 mg/kg SC) % saline-treated group (45 min) (fasted C57BL/6 mice [1]): 41%

Ki [3]: 2.41 ± 0.26 nM
Compound: CCCCCCCCCCCC(=O)N[C@H](C(=O)N1CCC[C@H]1C(=O)N[C@@H](CC(=O)O)C(=O)N[C@H](C(=O)N[C@@H](CC(N)=O)C(=O)N1CCC[C@H]1C(=O)N[C@@H](C)C(=O)N[C@@H](Cc1c[nH]c2ccccc12)C(=O)N[C@@H](Cc1ccc(O)cc1)C(=O)N[C@@H](C)C(=O)N[C@@H](CO)C(=O)N[C@@H](CCCNC(=N)N)C(=O)NCC(=O)N[C@H](C(=O)N[C@@H](CCCNC(=N)N)C(=O)N1CCC[C@H]1C(=O)N[C@H](C(=O)NCC(=O)N[C@@H](CCCNC(=N)N)C(=O)N[C@@H](Cc1ccccc1)C(N)=O)C(C)C)[C@@H](C)CC)[C@@H](C)CC)[C@@H](C)O [Analog 54] (Lauroyl-TPDINPAWYASRGIRPVGRF-NH2)
Food intake in mice (5 mg/kg SC) % saline-treated group (45 min) (fasted C57BL/6 mice [1]): 85%

Compound: PrRP13: tridecapeptide PrRP13 (containing amino acids 18 to 31 of PrRP31) (AWYASRGIRPVGRF; ends and bridges not checked; UniProt P81277 40-53, looked up, fragment)
anorexigenic activity in mice (fasted C57BL/6 mice [4]): not sufficient for maintaining the anorexigenic activity

Compound: SRAHQHSMETRTPDINPAWYTGRGIRPVGRF-NH2 [PrRP31, reference compound]
ERK signaling [5]: agonist
food intake in rats (rats): significant lowering of food intake
food intake (fasted C57BL/6 mice [1]; 45 minutes): 0.32 g
% control (fasted C57BL/6 mice [1]; 45 minutes): 100%
food intake (fasted C57BL/6 mice [1]; 300 minutes): 1.15 g
% control (fasted C57BL/6 mice [1]; 300 minutes): 105%
% of PrRP31 binding ([2]; ^125I-rat PrRP31, RC-4B/C cells): 100%
food intake (fasted C57BL/6 mice [6]; 45 minutes): 0.42 g
% control (fasted C57BL/6 mice [6]; 45 minutes): 75%
food intake (fasted C57BL/6 mice [6]; 300 minutes): 1.37 g
% control (fasted C57BL/6 mice [6]; 300 minutes): 104%
